Among the data in PubChem BioAssay AID328 (DTP/NCI, 2004) are T/C values, retold here.

The test has as its system BDF1 mice, P388 leukemia ip, median survival T/C. The test can be described thus: NCI In Vivo Anticancer Drug Screen. Data for tumor model P388 Leukemia (intraperitoneal) in B6D2F1 (BDF1) mice. To be noted: endpoint: median survival time, higher = longer survival. An outline of the steps:
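Reported as T/C, where T is the survival measurement in dosed animals and C the same measurement in vehicle controls.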

The mark [1] stands for this setting: dose: 100.0 mg/kg/injection, schedule: Q01DX009 (ip), vehicle: Klucel (hydroxypropylcellulose) (HPC).
Setting [2] is: dose: 100.0 mg/kg/injection, schedule: Q04DX003 (ip), vehicle: saline.
[3] abbreviates: dose: 200.0 mg/kg/injection, schedule: Q04DX003 (ip), vehicle: saline.
[4] abbreviates: dose: 50.0 mg/kg/injection, schedule: Q01DX009 (ip), vehicle: saline with Tween-80.
Where [5] appears, read: dose: 100.0 mg/kg/injection, schedule: Q01DX009 (ip), vehicle: saline with Tween-80.
The mark [6] stands for this setting: dose: 200.0 mg/kg/injection, schedule: Q01DX009 (ip), vehicle: saline with Tween-80.
Setting [7] is: dose: 200.0 mg/kg/injection, schedule: Q04DX003 (ip), vehicle: saline with Tween-80.
Setting [8] is: dose: 400.0 mg/kg/injection, schedule: Q04DX003 (ip), vehicle: saline with Tween-80.
[9] abbreviates: dose: 300.0 mg/kg/injection, schedule: Q01DX009 (ip), vehicle: saline with Tween-80.
The mark [10] stands for this setting: dose: 100.0 mg/kg/injection, schedule: Q04DX003 (ip), vehicle: saline with Tween-80.
The mark [11] stands for this setting: dose: 50.0 mg/kg/injection, schedule: Q04DX003 (ip), vehicle: saline with Tween-80.

Each structure is given as a SMILES string. Several values for one entry are separate records, joined by “and”; a condition that tells them apart may be missing. Identical values can stand only once. Inconclusive results and toxic doses are left out.

As for `COc1cc2c(cc1OC)-c1ncnc(-c3ccccc3)c1C2`, the T/C by setting is: under setting [1], 100 % of control; (dose: 100.0 mg/kg/injection, schedule: Q04DX003 (ip), vehicle: Klucel (hydroxypropylcellulose) (HPC)) 108 % of control; (dose: 200.0 mg/kg/injection, schedule: Q01DX009 (ip), vehicle: Klucel (hydroxypropylcellulose) (HPC)) 100 % of control; (dose: 200.0 mg/kg/injection, schedule: Q04DX003 (ip), vehicle: Klucel (hydroxypropylcellulose) (HPC)) 91 % of control; (dose: 400.0 mg/kg/injection, schedule: Q01DX009 (ip), vehicle: Klucel (hydroxypropylcellulose) (HPC)) 95 % of control; (dose: 400.0 mg/kg/injection, schedule: Q04DX003 (ip), vehicle: Klucel (hydroxypropylcellulose) (HPC)) 95 % of control.

For `CCCCCCCCCCCCCCCCS(=O)(=O)NN`, the T/C is 91 % of control (dose: 12.5 mg/kg/injection, schedule: Q01DX009 (ip), vehicle: other); 96 % of control (dose: 25.0 mg/kg/injection, schedule: Q01DX009 (ip), vehicle: other); 102 % of control (dose: 50.0 mg/kg/injection, schedule: Q01DX009 (ip), vehicle: other).

On to `CO[C@H](C)[C@](O)(C(=O)OCC1=CCN2CC[C@@H](O)[C@H]12)C(C)C`, for which the T/C runs as follows: (dose: 25.0 mg/kg/injection, schedule: Q01DX010 (ip), vehicle: carboxymethylcellulose (CMC)) 111 % of control; (dose: 50.0 mg/kg/injection, schedule: Q01DX010 (ip), vehicle: carboxymethylcellulose (CMC)) 111 % of control; (dose: 100.0 mg/kg/injection, schedule: Q01DX010 (ip), vehicle: carboxymethylcellulose (CMC)) 111 % of control.

With `CCCCCCCCCCC[N+](C)(C)CC(O)C[N+](C)(C)CCCCCCCCCCC`, the T/C (dose: 3.13 mg/kg/injection, schedule: Q01DX009 (ip), vehicle: saline) is 102 % of control; the T/C (dose: 6.25 mg/kg/injection, schedule: Q01DX009 (ip), vehicle: saline) is 111 % of control; the T/C (dose: 12.5 mg/kg/injection, schedule: Q01DX009 (ip), vehicle: saline) is 118 % of control.

Consider `Nc1ccc(N(CCCl)CCN(CCCl)c2ccc(N)cc2)cc1`, for which the T/C (dose: 0.8 mg/kg/injection, schedule: Q01DX009 (ip), vehicle: saline) is 154 % of control; the T/C (dose: 1.2 mg/kg/injection, schedule: Q01DX009 (ip), vehicle: saline) is 181 % of control; the T/C (dose: 1.8 mg/kg/injection, schedule: Q01DX009 (ip), vehicle: saline) was 204 % of control.

Regarding `Clc1ncnc2c1ncn2C1CCCO1` (stereo unspecified), the T/C is 104 % of control under setting [2] and 104 % of control under setting [3].

Regarding `Nc1nc(SSc2nc(N)nc3c2ncn3C2CC(O)C(CO)O2)c2ncn(C3CC(O)C(CO)O3)c2n1` (stereo unspecified), the T/C by setting is: (dose: 50.0 mg/kg/injection, schedule: Q01DX009 (ip), vehicle: Klucel (hydroxypropylcellulose) (HPC)) 150 % of control; under setting [1], 100 % of control.

As for `COc1cc(/C=N/n2cnnc2)cc(OC)c1OC`, the T/C under setting [2] is 100 % of control; the T/C under setting [3] was 100 % of control; the T/C (dose: 400.0 mg/kg/injection, schedule: Q04DX003 (ip), vehicle: saline) was 109 % of control.

As for `C=CC(=O)NC(Cc1ccccc1)C(=O)O` (stereo unspecified), the T/C reads like this: under setting [4], 102 % of control; under setting [5], 98 % of control; under setting [6], 99 % of control.

Consider `Cc1nn2c(=O)[nH]cnc2c1Cl`, for which the T/C under setting [5] is 93 % of control, the T/C under setting [6] is 100 % of control, the T/C under setting [7] was 95 % of control and the T/C under setting [8] is 109 % of control.

In the case of `CC(=O)NC(=O)NC(C)=O`, the T/C is 91 % of control (dose: 100.0 mg/kg/injection, schedule: Q01DX001 (ip), vehicle: saline); 91 % of control (dose: 200.0 mg/kg/injection, schedule: Q01DX001 (ip), vehicle: saline); 91 % of control (dose: 400.0 mg/kg/injection, schedule: Q01DX001 (ip), vehicle: saline).

Consider `CCC(C)NC(=S)N/N=C\C=N/NC(=S)NC(C)CC` (stereo unspecified), for which the T/C runs as follows: (dose: 75.0 mg/kg/injection, schedule: Q01DX009 (ip), vehicle: saline with Tween-80) 99 % of control; (dose: 150.0 mg/kg/injection, schedule: Q01DX009 (ip), vehicle: saline with Tween-80) 92 % of control; under setting [9], 103 % of control.

For the molecule `Cc1ccnc(NC2=CC(=O)C(=O)c3ccccc32)c1`, the T/C is 100 % of control (dose: 50.0 mg/kg/injection, schedule: Q01DX009 (ip), vehicle: saline); 118 % of control (dose: 75.0 mg/kg/injection, schedule: Q01DX009 (ip), vehicle: saline); 118 % of control (dose: 112.5 mg/kg/injection, schedule: Q01DX009 (ip), vehicle: saline).

As to `CCN(CC)c1ccc(NC(=O)Nc2ccccc2OC)cc1`, the T/C runs as follows: under setting [10], 95 % of control; under setting [7], 100 % of control; under setting [8], 100 % of control.

Consider `C=CCN(C)/N=N/c1[nH]ncc1C(N)=O`, for which the T/C reads like this: under setting [4], 104 % of control; under setting [11], 104 % of control; under setting [10], 109 % of control; under setting [6], 87 % of control; under setting [7], 109 % of control.

For `CCCCCCCNC(C)(C)C(SS)c1ccc(Cl)cc1` (stereo unspecified), the T/C is, setting by setting: (dose: 100.0 mg/kg/injection, schedule: Q04DX003 (sc), vehicle: olive oil, sesame oil, peanut oil) 100 % of control; (dose: 200.0 mg/kg/injection, schedule: Q04DX003 (sc), vehicle: olive oil, sesame oil, peanut oil) 109 % of control; (dose: 400.0 mg/kg/injection, schedule: Q04DX003 (sc), vehicle: olive oil, sesame oil, peanut oil) 100 % of control.

In the case of `COc1cc(Cl)ccc1C`, the T/C is, setting by setting: under setting [4], 100 % of control; under setting [11], 104 % of control; (dose: 88.0 mg/kg/injection, schedule: Q01DX009 (ip), vehicle: saline with Tween-80) 108 % of control and 114 % of control; under setting [5], 120 % of control; under setting [10], 113 % of control; (dose: 132.0 mg/kg/injection, schedule: Q01DX009 (ip), vehicle: saline with Tween-80) 108 % of control. The T/C reads like this: under setting [6], 120 % of control and 123 % of control; under setting [7], 118 % of control; under setting [9], 123 % of control.
